# According to ChEMBL document CHEMBL3044556, “Managing weeds with drip-applied herbicides in tomato” (2008):
# Columns and labels:
# Type in all cases: functional
# Trianthema [1] = assay: Pre-emergence herbicidal activity against Trianthema spp. in tomato field assessed as increase in extra-large fruit weight at 1.14 kg/ha applied through drip lines/backpack-spray on week 3 to 4 before transplanting relative to untreated control
# Corynandra viscosa [2] = assay: Pre-emergence herbicidal activity against Cleome viscosa in tomato field assessed as number of weeds at 1.14 kg/ha applied through drip lines/backpack-spray on week 3 to 4 before transplanting measured 7 weeks after treatment (reference value: 9 plants/m2)
# Boerhavia erecta [3] = assay: Pre-emergence herbicidal activity against Boerhavia erecta in tomato field assessed as number of weeds at 1.14 kg/ha applied through drip lines/backpack-spray on week 3 to 4 before transplanting measured 7 weeks after treatment (reference value: 9 plants/m2)
# Eleusine indica [4] = assay: Pre-emergence herbicidal activity against Eleusine indica in tomato field assessed as number of weeds at 1.14 kg/ha applied through drip lines/backpack-spray on week 3 to 4 before transplanting measured 12 weeks after treatment (reference value: 9 plants/m2)
# Trianthema [5] = assay: Pre-emergence herbicidal activity against Trianthema spp. in tomato field assessed as number of weeds at 1.14 kg/ha applied through drip lines/backpack-spray on week 3 to 4 before transplanting measured 7 weeks after treatment (reference value: 9 plants/m2)
# Portulaca oleracea [6] = assay: Pre-emergence herbicidal activity against Portulaca oleracea in tomato field assessed as number of weeds at 1.14 kg/ha applied through drip lines/backpack-spray on week 3 to 4 before transplanting measured 7 weeks after treatment (reference value: 9 plants/m2)
# Eleusine indica [7] = assay: Pre-emergence herbicidal activity against Eleusine indica in tomato field assessed as total number of fruits at 1.14 kg/ha applied through drip lines/backpack-spray on week 3 to 4 before transplanting (reference value: 49.5 x 10 '3 ha); conditions: pooled result: one value given for 8 cell lines, strains, targets or settings
# Cyperus [8] = assay: Pre-emergence herbicidal activity against Cyperus in tomato field assessed as number of weeds at 1.14 kg/ha applied through drip lines/backpack-spray on week 3 to 4 before transplanting measured 12 weeks after treatment (reference value: 5 plants/m2)
# Portulaca oleracea [9] = assay: Pre-emergence herbicidal activity against Portulaca oleracea in tomato field assessed as number of weeds at 1.14 kg/ha applied through drip lines/backpack-spray on week 3 to 4 before transplanting measured 12 weeks after treatment (reference value: 9 plants/m2)
# Trianthema [10] = assay: Pre-emergence herbicidal activity against Trianthema spp. in tomato field assessed as number of extra-large fruits at 1.14 kg/ha applied through drip lines/backpack-spray on week 3 to 4 before transplanting (reference value: 21.3 x 10 '3 ha); conditions: pooled result: one value given for 8 cell lines, strains, targets or settings
# Trianthema [11] = assay: Pre-emergence herbicidal activity against Trianthema spp. in tomato field assessed as number of weeds at 1.14 kg/ha applied through drip lines/backpack-spray on week 3 to 4 before transplanting measured 12 weeks after treatment (reference value: 9 plants/m2)
# Amaranthus dubius [12] = assay: Pre-emergence herbicidal activity against Amaranthus dubius in tomato field assessed as number of weeds at 1.14 kg/ha applied through drip lines/backpack-spray on week 3 to 4 before transplanting measured 12 weeks after treatment (reference value: 9 plants/m2)
# Corynandra viscosa [13] = assay: Pre-emergence herbicidal activity against Cleome viscosa in tomato field assessed as number of weeds at 1.14 kg/ha applied through drip lines/backpack-spray on week 3 to 4 before transplanting measured 12 weeks after treatment (reference value: 9 plants/m2)
# Digitaria [14] = assay: Pre-emergence herbicidal activity against Digitaria spp. in tomato field assessed as number of weeds at 1.14 kg/ha applied through drip lines/backpack-spray on week 3 to 4 before transplanting measured 7 weeks after treatment (reference value: 9 plants/m2)
# Eleusine indica [15] = assay: Pre-emergence herbicidal activity against Eleusine indica in tomato field assessed as increase in extra-large fruit weight at 1.14 kg/ha applied through drip lines/backpack-spray on week 3 to 4 before transplanting relative to untreated control
# Digitaria [16] = assay: Pre-emergence herbicidal activity against Digitaria spp. in tomato field assessed as number of weeds at 1.14 kg/ha applied through drip lines/backpack-spray on week 3 to 4 before transplanting measured 12 weeks after treatment (reference value: 9 plants/m2)
# Cyperus [17] = assay: Pre-emergence herbicidal activity against Cyperus in tomato field assessed as number of weeds at 1.14 kg/ha applied through drip lines/backpack-spray on week 3 to 4 before transplanting measured 7 weeks after treatment (reference value: 3 plants/m2)
# Eleusine indica [18] = assay: Pre-emergence herbicidal activity against Eleusine indica in tomato field assessed as number of weeds at 1.14 kg/ha applied through drip lines/backpack-spray on week 3 to 4 before transplanting measured 7 weeks after treatment (reference value: 9 plants/m2)
# Amaranthus dubius [19] = assay: Pre-emergence herbicidal activity against Amaranthus dubius in tomato field assessed as increase in extra-large fruit weight at 1.14 kg/ha applied through drip lines/backpack-spray on week 3 to 4 before transplanting relative to untreated control
# Corynandra viscosa [20] = assay: Pre-emergence herbicidal activity against Cleome viscosa in tomato field assessed as increase in extra-large fruit weight at 1.14 kg/ha applied through drip lines/backpack-spray on week 3 to 4 before transplanting relative to untreated control
# Amaranthus dubius [21] = assay: Pre-emergence herbicidal activity against Amaranthus dubius in tomato field assessed as number of weeds at 1.14 kg/ha applied through drip lines/backpack-spray on week 3 to 4 before transplanting measured 7 weeks after treatment (reference value: 9 plants/m2)
# Digitaria [22] = assay: Pre-emergence herbicidal activity against Digitaria spp. in tomato field assessed as increase in extra-large fruit weight at 1.14 kg/ha applied through drip lines/backpack-spray on week 3 to 4 before transplanting relative to untreated control
# Poaceae [23] = assay: Pre-emergence herbicidal activity against Poaceae (grass family) in tomato field assessed as number of weeds at 1.14 kg/ha applied through drip lines/backpack-spray on week 3 to 4 before transplanting measured 12 weeks after treatment (reference value: 8 plants/m2)
# Portulaca oleracea [24] = assay: Pre-emergence herbicidal activity against Portulaca oleracea in tomato field assessed as increase in extra-large fruit weight at 1.14 kg/ha applied through drip lines/backpack-spray on week 3 to 4 before transplanting relative to untreated control
# Boerhavia erecta [25] = assay: Pre-emergence herbicidal activity against Boerhavia erecta in tomato field assessed as increase in extra-large fruit weight at 1.14 kg/ha applied through drip lines/backpack-spray on week 3 to 4 before transplanting relative to untreated control
# Echinochloa colona [26] = assay: Pre-emergence herbicidal activity against Echinochloa colona in tomato field assessed as increase in extra-large fruit weight at 1.14 kg/ha applied through drip lines/backpack-spray on week 3 to 4 before transplanting relative to untreated control
# Eleusine indica [27] = assay: Pre-emergence herbicidal activity against Eleusine indica in tomato field assessed as increase in total marketable weight at 1.14 kg/ha applied through drip lines/backpack-spray on week 3 to 4 before transplanting relative to untreated control; conditions: pooled result: one value given for 8 cell lines, strains, targets or settings
# Echinochloa colona [28] = assay: Pre-emergence herbicidal activity against Echinochloa colona in tomato field assessed as number of weeds at 1.14 kg/ha applied through drip lines/backpack-spray on week 3 to 4 before transplanting measured 12 weeks after treatment (reference value: 9 plants/m2)
# Echinochloa colona [29] = assay: Pre-emergence herbicidal activity against Echinochloa colona in tomato field assessed as number of weeds at 1.14 kg/ha applied through drip lines/backpack-spray on week 3 to 4 before transplanting measured 7 weeks after treatment (reference value: 9 plants/m2)
# Boerhavia erecta [30] = assay: Pre-emergence herbicidal activity against Boerhavia erecta in tomato field assessed as number of weeds at 1.14 kg/ha applied through drip lines/backpack-spray on week 3 to 4 before transplanting measured 12 weeks after treatment (reference value: 9 plants/m2)
# Poaceae [31] = assay: Pre-emergence herbicidal activity against Poaceae (grass family) in tomato field assessed as number of weeds at 1.14 kg/ha applied through drip lines/backpack-spray on week 3 to 4 before transplanting measured 7 weeks after treatment (reference value: 6 plants/m2)
compound,measurement,setting,value
CCc1cccc(C)c1N(C(=O)CCl)[C@@H](C)COC [S-METOLACHLOR],Activity,Trianthema [1],75%
same,Activity,Corynandra viscosa [2],3 /m2
same,Activity,Boerhavia erecta [3],3 /m2
same,Activity,Eleusine indica [4],2 /m2
same,Activity,Trianthema [5],3 /m2
same,Activity,Portulaca oleracea [6],3 /m2
same,fruit count,Eleusine indica [7],70.8 10^3 fruits/ha
same,Activity,Cyperus [8],9 /m2
same,Activity,Portulaca oleracea [9],2 /m2
same,Activity,Trianthema [10],35 10^3 fruits/ha
same,Activity,Trianthema [11],2 /m2
same,Activity,Amaranthus dubius [12],2 /m2
same,Activity,Corynandra viscosa [13],2 /m2
same,Activity,Digitaria [14],3 /m2
same,Activity,Eleusine indica [15],75%
same,Activity,Digitaria [16],2 /m2
same,Activity,Cyperus [17],2 /m2
same,Activity,Eleusine indica [18],3 /m2
same,Activity,Amaranthus dubius [19],75%
same,Activity,Corynandra viscosa [20],75%
same,Activity,Amaranthus dubius [21],3 /m2
same,Activity,Digitaria [22],75%
same,Activity,Poaceae [23],3 /m2
same,Activity,Portulaca oleracea [24],75%
same,Activity,Boerhavia erecta [25],75%
same,Activity,Echinochloa colona [26],75%
same,Activity,Eleusine indica [27],57%
same,Activity,Echinochloa colona [28],2 /m2
same,Activity,Echinochloa colona [29],3 /m2
same,Activity,Boerhavia erecta [30],2 /m2
same,Activity,Poaceae [31],0 /m2
